The source of these data is patent publication US10562893B2, “Benzimidazoles derivatives as Tec kinases family inhibitors” (GB005, Inc., priority 2015, dated 2020).

SMILES strings stand for the structures.

For test [1], the system named is Jurkat human acute T cell leukemia cells. The experiment in a line: Jurkat IL-2 release assay. It is filed as cell-based. Conditions: IL-2 release from Jurkat cells stimulated with anti-CD3 and anti-CD28, 48 hours, ELISA. The method, then: Inhibition of cellular ITK was assessed by measuring release of IL-2 following stimulation with anti-CD3 and anti-CD28 antibodies. Individual wells of 96 well tissue culture plates were coated with 50 μL of 10 μg/mL anti-CD3 (OKT3, eBiosciences) for 2 hours at 37° C. Jurkat human acute T cell leukemia cells (ATCC) were plated in 96-well plates at a final concentration of 9.2×10e5 cells/mL in complete media (RPMI, 10% FBS, 1.5 g/L sodium bicarbonate, 10 mM Hepes, 1 mM sodium pyruvate, 4.5 g/L glucose) and pre-treated with compound curves for 30 minutes at 37° C., 5% CO2. Pre-treated cells plus compounds were transferred to washed anti-CD3 coated plates. Soluble anti-CD28 (CD28.2 eBiosciences) was added to each well at a final concentration of 1 μg/mL. The cells were placed in a humidified 37° C. incubator with 5% CO2 for 48 hours and IL-2 release was measured using a commercial ELISA (BD Bioscience catalog #555190). Controls included unstimulated cells and vehicle alone. EC50 values (50% IL-2 release in the presence of compound as compared to vehicle treated controls) were calculated from dose response compound curves using GraphPad Prism Software.
In general terms: In an ELISA, binding on a coated surface is turned into a signal by an enzyme label.

The subject of a further test is Human PBMCs. The experiment in a line: CD3/CD28 mediated PBMC proliferation assay. The test is classed as cell-based. The following applies: proliferation of human PBMCs stimulated with anti-CD3 and anti-CD28, 72 hours, Cell Titer-Glo. The protocol:
Inhibition of cellular ITK was assessed by measuring proliferation of PBMCs following stimulation with anti-CD3 and anti-CD28 antibodies. Individual wells of 96 well tissue culture plates were coated with 50 μL of 5 μg/mL anti-CD3 (OKT3, eBiosciences) for 2 hours at 37° C. Human PBMCs (Stemcell Technologies catalog #70025.3) were plated in 96-well plates at a final concentration of 9.2×10e5 cells/mL in complete media (RPMI, 10% heat inactivated FBS, 55 uM β-mercaptoethanol) and pre-treated with compound curves for 30 minutes at 37° C., 5% CO2. Pre-treated cells plus compounds were transferred to washed anti-CD3 coated plates. Soluble anti-CD28 (CD28.2 eBiosciences) was added to each well at a final concentration of 2 μg/mL. The cells were placed in a humidified 37° C. incubator with 5% CO2 for 72 hours and metabolic viability was measured by quantification of ATP levels with Cell Titer-Glo (Promega catalog # G9242). Controls included unstimulated cells and vehicle alone. EC50 values (50% proliferation in the presence of compound as compared to vehicle treated controls) were calculated from dose response compound curves using GraphPad Prism Software.
Background: Cellular ATP, detected with luciferase, serves as a proxy for viable cell number.

A word on the EC50: it is the concentration giving half of the maximal effect. A low value points to a more potent agent. As for `C=CC(=O)N(C)[C@H]1C[C@@H](n2c(NC(=O)c3ccc(C(F)F)s3)nc3cc(CN[C@@H](C)C(C)(C)C)ccc32)C1` [Compound 6], the EC50 is less than 10 nM in test [1] and 10 to 100 nM in the test with Human PBMCs. `C=CC(=O)Nc1cccc(-n2c(NC(=O)c3ccc(C(F)F)s3)nc3cc(CN[C@H]4CC[C@H](OCCOC)CC4)ccc32)c1` [Compound 51] yielded a concentration for a half-maximal effect (EC50) in the test on Human PBMCs of less than 10 nM. On the same count and under the same terms, the result for `C=CC(=O)Nc1cccc(-n2c(NC(=O)c3cnn(C)c3)nc3cc(CN[C@@H](C)C(C)(C)C)ccc32)c1` [Compound 49] reads greater than 100 nM; that for `C=CC(=O)N[C@H]1C[C@@H](n2c(NC(=O)c3ccc(C(F)F)s3)nc3cc(C(=O)N(C)C4CCCCC4)ccc32)C1` [Compound 65], greater than 100 nM.

As for `C=CC(=O)Nc1cccc(-n2c(NC(=O)c3ccc(C(F)F)s3)nc3cc(CN4C[C@@H](C)O[C@@H](C)C4)ccc32)c1` [Compound 61], in the test with Human PBMCs, the 50% effective concentration (EC50) was less than 10 nM. Take `C=CC(=O)Nc1cccc(-n2c(NC(=O)c3ccns3)nc3cc(CN4CCOCC4)ccc32)c1` [Compound 73]: the EC50 is less than 10 nM in test [1] and 10 to 100 nM in the test with Human PBMCs. For the compound `C=CC(=O)Nc1cccc(-n2c(NC(=O)c3ccc(C(F)F)s3)nc3cc(C(=O)NC4CCCCC4)ccc32)c1` [Compound 53], the EC50 in the test on Human PBMCs is 10 to 100 nM. Regarding `C=CC(=O)Nc1cccc(-n2c(NC(=O)c3ccc(C(F)F)s3)nc3cc(CN[C@H]4CC[C@@H](OCCOC)CC4)ccc32)c1` [Compound 60], the EC50 in the test with Human PBMCs is less than 10 nM. Turning to `C=CC(=O)Nc1cccc(-n2c(NC(=O)c3ccc(C(F)F)s3)nc3cc(CN[C@@H](CO)C(C)(C)C)ccc32)c1` [Compound 22], the EC50 (in test [1]; in the test with Human PBMCs) was less than 10 nM each time.

As for `C=CC(=O)Nc1cccc(-n2c(NC(=O)c3ccc(C(F)F)s3)nc3cc(CN[C@H](CO)C(C)(C)C)ccc32)c1` [Compound 47], the EC50 in the test on Human PBMCs is less than 10 nM.

`C=CC(=O)Nc1cccc(-n2c(NC(=O)c3ccc(Cl)cc3)nc3cc(CN[C@@H](C)C(C)(C)C)ccc32)c1` [Compound 10]: the EC50 (in test [1]; in the test with Human PBMCs) was 10 to 100 nM throughout. In the test on Human PBMCs, `C=CC(=O)Nc1cccc(-n2c(NC(=O)c3ccc(C(F)F)s3)nc3cc(OCc4ccccc4)ccc32)c1` [Compound 79] had a 50% effective concentration (EC50) greater than 100 nM. As for `C=CC(=O)Nc1cc(-n2c(NC(=O)c3ccc(C(F)F)s3)nc3cc(CN[C@@H](C)C(C)(C)C)ccc32)ccc1F` [Compound 34], the EC50 (in test [1]; in the test with Human PBMCs) was greater than 100 nM each time.

Take `C=CC(=O)Nc1cccc(-n2c(NC(=O)c3ccc(C(F)F)s3)nc3cc(CNC4CCCCC4)ccc32)c1` [Compound 14]: the EC50 in test [1] was less than 10 nM; in the test with Human PBMCs, 10 to 100 nM. For the compound `C=CC(=O)Nc1cccc(-n2c(NC(=O)c3ccc(C(F)F)s3)nc3cc(CNCCCOCCOCCCNC(C)=O)ccc32)c1` [Compound 66], in the test with Human PBMCs, the EC50 is 10 to 100 nM. As to `C=CC(=O)N[C@H]1CC[C@@H](n2c(NC(=O)c3ccc(C#N)cc3)nc3cc(CN[C@@H](C)C(C)(C)C)ccc32)CC1` [Compound 54], the EC50 (in test [1]; in the test with Human PBMCs) was greater than 100 nM each time. As for `C=CC(=O)Nc1cccc(-n2c(NC(=O)c3ccc(F)cc3)nc3cc(CN[C@@H](C)C(C)(C)C)ccc32)c1` [Compound 20], the EC50 in test [1] was 10 to 100 nM; in the test with Human PBMCs it was greater than 100 nM. Regarding `C=CC(=O)N(C)[C@H]1CC[C@@H](n2c(NC(=O)c3ccc(C(F)F)s3)nc3cc(CN[C@@H](C)C(C)(C)C)ccc32)CC1` [Compound 58], the EC50 in the test on Human PBMCs is greater than 100 nM. Take `C=CC(=O)Nc1cccc(-n2c(NC(=O)c3ccc(C(F)F)s3)nc3cc(CN[C@@H](C)CC)ccc32)c1` [Compound 21]: the values for the EC50 (in test [1]; with Human PBMCs) were 10 to 100 nM and less than 10 nM, respectively. Taken in the same sequence, the figures for `C=CC(=O)Nc1cccc(-n2c(NC(=O)c3cccc(OC)c3)nc3cc(CN[C@@H](C)C(C)(C)C)ccc32)c1` [Compound 8] were 10 to 100 nM and greater than 100 nM. For `C=CC(=O)Nc1cccc(-n2c(NC(=O)c3ccc(C(F)F)s3)nc3cc(CNCC(C)(C)CO)ccc32)c1` [Compound 29], in that order: less than 10 nM and less than 10 nM. Regarding `C=CC(=O)Nc1cccc(-n2c(NC(=O)c3ccc(C(F)F)s3)nc3cc(C(=O)N(C)C4CCCCC4)ccc32)c1` [Compound 48], in the test with Human PBMCs, the EC50 is 10 to 100 nM. For the compound `C=CC(=O)N(C)c1cccc(-n2c(NC(=O)c3ccc(C(F)F)s3)nc3cc(CN[C@@H](C)C(C)(C)C)ccc32)c1` [Compound 5], the EC50 in test [1] was less than 10 nM; with Human PBMCs, 10 to 100 nM. Consider `C=CC(=O)Nc1cccc(-n2c(NC(=O)c3ccc(C(F)F)s3)nc3cc(CN4CCC[C@H]4CO)ccc32)c1` [Compound 45], for which the EC50 in the test on Human PBMCs was less than 10 nM. On to `C=CC(=O)Nc1ccc(F)c(-n2c(NC(=O)c3ccc(C(F)F)s3)nc3cc(CN[C@@H](C)C(C)(C)C)ccc32)c1` [Compound 33], for which the EC50 (in test [1]; in the test on Human PBMCs) was less than 10 nM in each case. Consider `C=CC(=O)Nc1cccc(-n2c(NC(=O)c3ccc(C(F)F)s3)nc3cc(CNCCCO)ccc32)c1` [Compound 39], for which the EC50 in test [1] was 10 to 100 nM; with Human PBMCs, less than 10 nM.

In the test with Human PBMCs, `C=CC(=O)N[C@H]1CC[C@@H](n2c(NC(=O)c3ccc(-c4cnco4)s3)nc3cc(CN[C@@H](C)C(C)(C)C)ccc32)CC1` [Compound 71] came in with an EC50 of 10 to 100 nM. In turn, `C/C=C/C(=O)Nc1cccc(-n2c(NC(=O)c3ccc(C(F)F)s3)nc3cc(CN[C@@H](C)C(C)(C)C)ccc32)c1` [Compound 83] had an EC50 in the test on Human PBMCs greater than 100 nM. In the case of `CC#CC(=O)Nc1cccc(-n2c(NC(=O)c3ccc(C(F)F)s3)nc3cc(CN[C@@H](C)C(C)(C)C)ccc32)c1` [Compound 72], the concentration giving a half-maximal response (EC50) was 10 to 100 nM in test [1] and greater than 100 nM in the test on Human PBMCs.

Compound `C=CC(=O)N1CCc2ccc(-n3c(NC(=O)c4ccc(C(F)F)s4)nc4cc(CN[C@@H](C)C(C)(C)C)ccc43)cc21` [Compound 56] came in with an EC50 with Human PBMCs of 10 to 100 nM. Regarding `C=CC(=O)Nc1cccc(-n2c(NC(=O)c3ccns3)nc3cc(CN[C@H]4CC[C@H](O)CC4)ccc32)c1` [Compound 75], the EC50 in the test with Human PBMCs is greater than 100 nM. The same measure, in the same setting: the result for `C=CC(=O)N[C@H]1C[C@@H](n2c(NC(=O)c3ccc(C(F)F)s3)nc3cc(NC(=O)C4CCCCC4)ccc32)C1` [Compound 64] reads greater than 100 nM; that for `C=CC(=O)Nc1cccc(-n2c(NC(=O)c3ccc(C(F)F)s3)nc3cc(CO)ccc32)c1` [Compound 69], 10 to 100 nM; that for `C=CC(=O)Nc1cccc(-n2c(NC(=O)c3ccc(C(F)F)s3)nc3cc(CN4CCC[C@@H]4CO)ccc32)c1` [Compound 44], less than 10 nM. In the test on Human PBMCs, `C=CC(=O)Nc1cccc(-n2c(NC(=O)c3ccno3)nc3cc(CN[C@H]4CC[C@H](O)CC4)ccc32)c1` [Compound 74] came in with an EC50 greater than 100 nM. For `C=CC(=O)N[C@H]1CC[C@@H](n2c(NC(=O)c3cccnc3)nc3cc(CN[C@@H](C)C(C)(C)C)ccc32)CC1` [Compound 55], the EC50 in the test on Human PBMCs is greater than 100 nM. The compound `C=CC(=O)N[C@H]1C[C@@H](n2c(NC(=O)c3ccc(C(F)F)s3)nc3cc(N(C)C(=O)C4CCCCC4)ccc32)C1` [Compound 63] came in with an EC50 in the test on Human PBMCs greater than 100 nM.

In the test with Human PBMCs, `C=CC(=O)N[C@H]1C[C@@H](n2c(NC(=O)c3ccc(C(F)F)s3)nc3cc(C(=O)NC4CCCCC4)ccc32)C1` [Compound 70] showed an EC50 greater than 100 nM. Compound `C=CC(=O)Nc1cccc(-n2c(NC(=O)c3cnc(C(C)C)s3)nc3cc(CN[C@@H](C)C(C)(C)C)ccc32)c1` [Compound 82] displayed an EC50 in test [1] of 10 to 100 nM.

In the test on Human PBMCs, `C=CC(=O)Nc1cccc(-n2c(NC(=O)c3ccc(C(F)F)s3)nc3cc(CNCCOCCOC)ccc32)c1` [Compound 46] displayed an EC50 of 10 to 100 nM.
